# Tests used:
# Test in all cases: relative viability (nuclei count vs DMSO), 5 days (fraction); higher = more cells survive
# CAP-232 + Luminespib = compound: C[C@H]([C@@H](C(=O)N)NC(=O)[C@@H]1CSSC[C@@H](C(=O)N[C@H](C(=O)N[C@@H](C(=O)N[C@H](C(=O)N1)CCCCN)CC2=CNC3=CC=CC=C32)CC4=CC=C(C=C4)O)NC(=O)[C@@H](CC5=CC=CC=C5)N)O [CAP-232] + CCNC(=O)c1noc(-c2cc(C(C)C)c(O)cc2O)c1-c1ccc(CN2CCOCC2)cc1 [Luminespib] (partner 0.01 µM)
# In short: (§1)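 Medians of duplicate plates are given as relative viability. That measure is the nuclei count in treated wells divided by the count in vehicle wells. Counts were taken on 4× images of lung cancer cell lines in 1536-well plates, 5 days after pin-tool dosing the day after seeding with one drug alone or a fixed anchor-drug dose plus five library-drug doses (not always all listed) in √10 steps.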
# CAP-232 + Pictilisib = compound: C[C@H]([C@@H](C(=O)N)NC(=O)[C@@H]1CSSC[C@@H](C(=O)N[C@H](C(=O)N[C@@H](C(=O)N[C@H](C(=O)N1)CCCCN)CC2=CNC3=CC=CC=C32)CC4=CC=C(C=C4)O)NC(=O)[C@@H](CC5=CC=CC=C5)N)O [CAP-232] + CS(=O)(=O)N1CCN(Cc2cc3nc(-c4cccc5[nH]ncc45)nc(N4CCOCC4)c3s2)CC1 [Pictilisib] (partner 1 µM)
# In short: as §1
# CAP-232 + Linsitinib = compound: C[C@H]([C@@H](C(=O)N)NC(=O)[C@@H]1CSSC[C@@H](C(=O)N[C@H](C(=O)N[C@@H](C(=O)N[C@H](C(=O)N1)CCCCN)CC2=CNC3=CC=CC=C32)CC4=CC=C(C=C4)O)NC(=O)[C@@H](CC5=CC=CC=C5)N)O [CAP-232] + C[C@]1(O)C[C@@H](c2nc(-c3ccc4ccc(-c5ccccc5)nc4c3)c3c(N)nccn32)C1 [Linsitinib] (partner 1 µM)
# In short: as §1
# CAP-232 + Phenformin = compound: C[C@H]([C@@H](C(=O)N)NC(=O)[C@@H]1CSSC[C@@H](C(=O)N[C@H](C(=O)N[C@@H](C(=O)N[C@H](C(=O)N1)CCCCN)CC2=CNC3=CC=CC=C32)CC4=CC=C(C=C4)O)NC(=O)[C@@H](CC5=CC=CC=C5)N)O [CAP-232] + N=C(N)NC(=N)NCCc1ccccc1 [Phenformin] (partner 250 µM)
# In short: as §1
# CAP-232 + Crizotinib = compound: C[C@H]([C@@H](C(=O)N)NC(=O)[C@@H]1CSSC[C@@H](C(=O)N[C@H](C(=O)N[C@@H](C(=O)N[C@H](C(=O)N1)CCCCN)CC2=CNC3=CC=CC=C32)CC4=CC=C(C=C4)O)NC(=O)[C@@H](CC5=CC=CC=C5)N)O [CAP-232] + C[C@@H](Oc1cc(-c2cnn(C3CCNCC3)c2)cnc1N)c1c(Cl)ccc(F)c1Cl [Crizotinib] (partner 1 µM)
# In short: as §1
Cell Line,relative viability (CAP-232 + Luminespib; first compound 0.4 µM),relative viability (CAP-232 + Luminespib; first compound 1.265 µM),relative viability (CAP-232 + Luminespib; first compound 4 µM),relative viability (CAP-232 + Luminespib; first compound 12.65 µM),relative viability (CAP-232 + Pictilisib; first compound 0.4 µM),relative viability (CAP-232 + Pictilisib; first compound 1.265 µM),relative viability (CAP-232 + Pictilisib; first compound 4 µM),relative viability (CAP-232 + Pictilisib; first compound 12.65 µM),relative viability (CAP-232 + Linsitinib; first compound 0.4 µM),relative viability (CAP-232 + Linsitinib; first compound 1.265 µM),relative viability (CAP-232 + Linsitinib; first compound 4 µM),relative viability (CAP-232 + Linsitinib; first compound 12.65 µM),relative viability (CAP-232 + Phenformin; first compound 0.4 µM),relative viability (CAP-232 + Phenformin; first compound 1.265 µM),relative viability (CAP-232 + Phenformin; first compound 4 µM),relative viability (CAP-232 + Phenformin; first compound 12.65 µM),relative viability (CAP-232 + Crizotinib; first compound 0.4 µM),relative viability (CAP-232 + Crizotinib; first compound 1.265 µM),relative viability (CAP-232 + Crizotinib; first compound 4 µM),relative viability (CAP-232 + Crizotinib; first compound 12.65 µM)
PC-14,0.26,0.178,0.183,0.125,0.771,0.661,0.734,0.656,1.01,0.955,0.955,0.775,0.577,0.56,0.659,0.386,1.02,0.861,0.933,0.89
NCI-H3122,0.0705,0.067,0.0822,0.0819,0.399,0.573,0.568,0.566,0.991,0.979,1.01,1.08,0.404,0.388,0.395,0.335,0.274,0.313,0.308,0.277
SK-MES-1,0.726,0.889,0.888,0.531,0.335,0.379,0.32,0.323,1.09,1.14,1,1.01,0.684,0.663,0.693,0.521,0.965,0.909,0.926,0.931
NCI-H1944,0.709,0.695,0.78,0.667,0.371,0.33,0.394,0.354,1.3,1.13,1.14,1.07,0.211,0.207,0.221,0.181,1.12,1.05,1.03,1.24
LK-2,0.176,0.207,0.19,0.183,0.42,0.608,0.494,0.61,0.463,0.836,0.517,0.389,0.47,0.302,0.389,0.415,0.216,0.251,0.181,0.199
RERF-LC-KJ,1.27,1.39,1,0.918,0.563,0.623,0.538,0.42,1.01,0.886,0.933,0.854,0.493,0.4,0.388,0.315,0.944,0.919,0.851,0.829
COR-L23,0.475,0.776,0.81,0.506,0.653,0.734,0.784,0.579,0.92,1,0.971,0.676,0.497,0.47,0.468,0.372,0.665,0.793,0.72,0.619
NCI-H1355,0.81,0.808,0.578,0.683,0.365,0.464,0.497,0.521,0.776,0.901,1.02,0.754,0.517,0.467,0.43,0.418,1.02,1.01,1.22,1.27
NCI-H460,0.0294,0.0314,0.0247,0.0208,0.328,0.306,0.433,0.349,0.89,0.865,0.986,0.44,0.634,0.529,0.567,0.307,0.924,1.1,1.05,0.534
NCI-H1993,0.735,0.882,0.99,0.831,0.887,0.935,0.977,0.768,0.778,0.758,0.788,0.7,0.497,0.541,0.545,0.564,0.884,0.95,0.885,0.835
ChaGo-K-1,0.574,0.638,0.495,0.545,1,0.51,0.703,0.256,–,–,–,–,0.487,0.466,0.601,0.505,1.22,1.17,1.41,0.833
HCC-15,0.254,0.228,0.248,0.312,0.778,0.764,0.806,0.54,0.853,0.894,0.912,0.805,0.477,0.465,0.481,0.236,0.807,0.816,0.924,0.825
NCI-H23,0.218,0.196,0.197,0.119,0.405,0.491,0.504,0.462,0.5,0.624,0.587,0.543,0.84,0.813,0.833,0.678,0.532,0.444,0.462,0.362
NCI-H1395,0.661,0.638,0.665,0.614,0.593,0.433,0.602,0.576,1.3,0.986,1.03,0.831,0.46,0.4,0.448,0.453,–,–,–,–
NCI-H1666,1.03,1.04,0.982,0.963,0.44,–,0.356,0.248,0.721,–,0.85,0.619,0.611,0.575,0.573,0.593,1.03,–,0.829,0.852
NCI-H2405,0.61,0.709,0.641,0.491,0.372,0.441,0.565,0.322,0.789,1.06,0.868,0.547,0.377,0.356,0.37,0.317,0.76,0.848,0.876,0.843

Cell Line,relative viability (CAP-232 + Luminespib; first compound 0.4 µM),relative viability (CAP-232 + Luminespib; first compound 1.265 µM),relative viability (CAP-232 + Luminespib; first compound 4 µM),relative viability (CAP-232 + Luminespib; first compound 12.65 µM),relative viability (CAP-232 + Pictilisib; first compound 0.4 µM),relative viability (CAP-232 + Pictilisib; first compound 1.265 µM),relative viability (CAP-232 + Pictilisib; first compound 4 µM),relative viability (CAP-232 + Pictilisib; first compound 12.65 µM),relative viability (CAP-232 + Linsitinib; first compound 0.4 µM),relative viability (CAP-232 + Linsitinib; first compound 1.265 µM),relative viability (CAP-232 + Linsitinib; first compound 4 µM),relative viability (CAP-232 + Linsitinib; first compound 12.65 µM),relative viability (CAP-232 + Phenformin; first compound 0.4 µM),relative viability (CAP-232 + Phenformin; first compound 1.265 µM),relative viability (CAP-232 + Phenformin; first compound 4 µM),relative viability (CAP-232 + Phenformin; first compound 12.65 µM),relative viability (CAP-232 + Crizotinib; first compound 0.4 µM),relative viability (CAP-232 + Crizotinib; first compound 1.265 µM),relative viability (CAP-232 + Crizotinib; first compound 4 µM),relative viability (CAP-232 + Crizotinib; first compound 12.65 µM)
NCI-H2009,1.02,0.975,1,0.95,0.711,0.728,0.88,0.478,1.2,1.18,1.22,1.09,0.501,0.493,0.547,0.42,1.11,1.01,1.05,1.09
HCC-78,–,–,–,–,0.206,0.178,0.21,0.195,0.53,0.559,0.371,0.408,0.859,0.806,0.746,0.54,0.367,0.34,0.251,0.323
NCI-H2170,0.777,0.866,0.674,0.826,0.257,0.275,0.259,0.286,–,–,–,–,0.409,0.422,0.438,0.42,1.24,1.22,1.23,0.901
NCI-H1793,0.199,0.195,0.451,0.165,0.334,0.284,0.31,0.283,1.09,1.06,0.652,0.801,0.4,0.367,0.329,0.372,–,–,–,–
HCC-366,–,–,–,–,0.133,0.154,0.148,0.189,0.745,0.628,0.824,0.537,0.6,0.588,0.66,0.631,0.486,0.543,0.623,0.448
NCI-H1651,1.12,0.95,0.867,0.506,0.666,0.685,0.624,0.368,1.02,0.937,1.01,0.655,0.407,0.32,0.352,0.25,0.861,0.856,0.918,0.904
LC-2-ad,1.03,1.07,0.965,0.561,0.404,0.409,0.63,0.458,0.84,0.847,0.766,0.807,0.707,0.514,0.603,0.257,0.436,0.464,0.451,0.391
HCC-827,0.629,0.66,0.659,0.749,0.842,1.1,0.896,1.05,0.911,0.893,0.921,0.959,0.409,0.384,0.387,0.418,0.932,1.02,0.784,0.963
SW 1573,0.166,0.323,0.214,0.161,0.437,0.587,0.54,0.395,0.751,0.781,0.731,0.683,0.337,0.413,0.421,0.163,0.785,0.803,0.642,0.81
NCI-H1703,–,–,–,–,0.245,0.224,0.269,0.261,0.489,0.642,0.933,0.873,–,–,–,–,0.788,0.844,0.74,0.695
NCI-H1650,0.195,0.197,0.214,0.126,0.636,0.578,0.535,0.154,–,–,–,–,0.479,0.335,0.424,0.153,0.98,0.963,0.966,0.627
NCI-H2342,0.786,0.765,0.719,0.699,–,–,–,–,–,–,–,–,0.572,0.562,0.629,0.551,–,–,–,–
SW 900,0.171,0.185,0.187,0.169,–,–,–,–,–,–,–,–,0.644,0.527,0.722,0.457,–,–,–,–
NCI-H522,1.08,1.11,1.15,1.3,–,–,–,–,–,–,–,–,0.7,0.72,0.592,0.69,–,–,–,–
A549,–,–,–,–,0.591,0.472,0.563,0.203,0.621,0.59,0.583,0.531,0.164,0.183,0.146,0.113,0.86,0.734,0.871,0.251
IA-LM,–,–,–,–,0.359,0.365,0.39,0.146,0.828,0.611,0.711,0.394,–,–,–,–,0.852,0.928,0.892,0.242

# From the supplement of paper PMC10307832
